Structures can show the parent of a compound that is named as a salt.
Columns and labels:
[1] = system: MOLM14, MV4;11, and HL60 human AML cells; experiment: Annexin V/7-AAD cell viability and apoptosis; type: cell-based; conditions: 30-45 min pre-incubation with 10 nM QVD
Procedure: Cytotoxicity was assessed using alamarBlue assays (Life Technologies, Grand Island, NY) following manufacturer’s guidelines. Cell death was verified by Annexin V/7-aminoactinomycin D (7AAD) staining (BioLegend, San Diego, CA) per manufacturer’s guidelines.
MOLM14, MV4;11, and HL60 human AML cells were assessed for cell viability and caspase-dependent apoptosis following treatment with ART631 (200 nM), VEN (50 nM), SOR (5 µM), and combinations thereof.
Figure 3 ART631-based combination treatments reduced cell viability in AML cell lines. MOLM14, MV4;11, and HL60 AML cells were each treated for 18h with vehicle (DMSO) control, ART631 alone (200 nM), VEN alone (50 nM), SOR alone (5 uM), and 2- and 3-drug combinations, all with and without a 30-45 min pre-incubation with 10 nM pan-caspase inhibitor QVD-OPh (QVD). Treated cells were stained with 2.5 ug/mL 7-aminoactinomycin D (7-AAD) and 0.5 ug/mL allophycocyanin (APC)-conjugated Annexin V in Annexin V binding buffer and analyzed by flow cytometry. Graphs indicate % cell viability based on Annexin V/7-AAD dual staining. For MOLM14 and MV4;11, means and SDs shown are based on 3 independent experiments. HL60 cell data is from one experiment done in triplicate.

[2] = system: MOLM14, MV4;11, and HL60 human AML cells; parameters: method as in PMID 33560385; conditions: ART631 200 nM, VEN 50 nM, SOR 5 µM; MOLM14, MV4;11, HL60; cited from earlier work
MOLM14 cells = experiment: Total cellular ROS (CM-H2DCFDA flow cytometry); type: cell-based, human; conditions: MOLM14, DFO 11 uM, 60 min pre-treatment
Procedure: […] Cells were then treated with ART631 (200 nM) or DMSO control for 18h, with subsequent analysis by flow cytometry. Western blotting and quantitative reverse transcription PCR (qRT-PCR) to assess for molecular markers of ROS-mediated apoptosis were performed as previously described ([20]).
Figure 4 ART631 elevated ROS and CHOP levels and reduced MCL1 expression in MOLM14 AML cells. […] They were then analyzed by flow cytometry. Graph represents %CM-H2DCFDA fluorescence compared to vehicle (DMSO) control treated cells. Error bars represent SD from 3 independent experiments. (B) MOLM14 AML cells were treated for 18h with vehicle, AS (10 uM), ART838 (200 nM), ART631 (200 nM), cytarabine (AraC; 150 nM), or SOR (5 uM). Protein was isolated and western blotted for MCL1, BCL2, CHOP, and β-actin. (C) MOLM14 cells were treated as in (B) for 18h, total RNA isolated, cDNA synthesized, and SYBR Green qRT-PCR performed in triplicates. Ct values were normalized to housekeeping gene GAPDH and fold change shown relative to vehicle (DMSO) control. Error bars represent SD from 3 independent experiments done in triplicate.

| Compound | cell death as single agents [2] | also measured |
| --- | --- | --- |
| CC(C)[C@H](NC(=O)c1ccc2ccccc2n1)C(=O)N[C@@H](CC(=O)O)C(=O)COc1c(F)cccc1F [QVD-OPh] |  | effect of pre-treatment on apoptosis and cell death for all drugs and combinations [1]: almost fully inhibited |
| CNC(=O)c1cc(Oc2ccc(NC(=O)Nc3ccc(Cl)c(C(F)(F)F)c3)cc2)ccn1 [SOR, sorafenib] | less than 15% |  |
| CC1(C)CCC(CN2CCN(c3ccc(C(=O)NS(=O)(=O)c4ccc(NCC5CCOCC5)c([N+](=O)[O-])c4)c(Oc4cnc5[nH]ccc5c4)c3)CC2)=C(c2ccc(Cl)cc2)C1 [VEN, venetoclax] | less than 15% |  |
| CC(=O)N(O)CCCCCNC(=O)CCC(=O)N(O)CCCCCNC(=O)CCC(=O)N(O)CCCCCN [deferoxamine mesylate, reference compound] |  | effect of pre-treatment on ROS generation by ART631 (MOLM14 cells): diminished |

Source: paper PMC8811960, “A Novel 2-Carbon-Linked Dimeric Artemisinin With Potent Antileukemic Activity and Favorable Pharmacology” (Frontiers in Oncology, 2022)
